Laboratory results reported in patent US20140287995A1, “STABLE PHARMACEUTICAL FORMULATIONS OF GROWTH FACTOR PEPTIDES” (THE UNIVERSITY OF CHICAGO, priority 2011, published 2014).

What was measured:
[1] = test system: non-transformed African Green Monkey kidney epithelial (BSC-1) cells; assay: Mitogenic response of BSC-1 cells (cell number counted in a hemocytometer after 4 days); type: cell-based; conditions: for mitogenic activity of excipient without NX001: 20 mM histidine or 8.8% sucrose, alone or together, diluted 160-fold, FIG. 3A
Protocol: Various lots of unformulated NX001 can be assayed for bioactivity using the mitogenic response of BSC-1 cells as an indicator (see, for instance, U.S. Pat. No. 6,096,706). In this example, two lots of NX001 peptide (Lots PPL-WGF0501A and lot PPL WGF0801) were tested. Varying amounts of the two peptides were added to near-confluent monolayers of non-transformed African Green Monkey kidney epithelial (BSC-1) cells, and the number of cells was counted in a hemocytometer 4 days later.
Each formulation was reconstituted with 1.0 mL water, and was swirled to dissolve the contents. Each solution was then be diluted to 0.125 mg/mL with water. Aliquots of 8 μL each was added to triplicate wells of BSC-1 cells to yield final concentrations of NX001 from 0.05 to 0.4 μg/mL. The plates were incubated at 37° C. for 4 days, and then cells was counted. A third lot of NX001 (PPL-WGF0801) that is not formulated and not lyophilized was dissolved and diluted in water and was used as positive control.
To investigate whether excipients alone or in combination might modify the mitogenic activity, NX001 was added to 20 mM histidine, 8.8% sucrose or the combination and the solutions were diluted to 0.125 mg/mL. Each of the near confluent monolayers of BSC-1 cells in 5 ml DMEM containing 40 μM biotin and 0.5% calf serum received either 8 μl of water, 8 μl of an excipient, or 0.2 μg/ml of PPL-WGF0801 in a final volume of 8 μl of 8.8% sucrose or 20 mM histidine (pH 5.5), or both.
An experiment to determine whether the pH of formulated NX001 affected bioactivity was performed. In this experiment, NX001 (lot PPLWGF0801) was used as a positive control and was dissolved in water to […], diluted 1/160 with water to 0.125 mg/mL, and 8 μL was added to assay plates to a final concentration of 0.2 μg/mL. (see FIG. 4, bar 1).
NX001 (lot PPLWGF0801) was dissolved to 20 mg/mL in either water or PBS, diluted to 0.125 mg/mL in water or PBS as specified, and 8 μL was then added to assay plates to a final concentration of […].
To insure that formulation of NX001 yielded a solution for injection that was as physiological as possible, the formulation of NX001 was adjusted to provide a neutral, iso-osmotic preparation. The adjusted formulation contains 20 mg/mL NX001, 20 mM histidine, 200 mM sucrose at a pH of 7.25, or 80 mg/mL NX001, 20 mM histidine, 15 mM sucrose, pH 7.25. Vials of formulated and lyophilized NX001 at either 80 mg/mL or 20 mg/mL were reconstituted with 1 mL water and diluted to […] before bioassay.

[2] = Stability of neutral lyophilized NX001 formulation, 12 months storage; type: physicochemical
Protocol: The stability of NX001 formulations was also evaluated. The stability of a lot of NX001 was monitored for 12 months at storage temperatures of 5° C. and 25° C. Appearance of lyophilized cake, reconstitution time, appearance of the reconstituted solution, pH, identity of the peptide, potency and purity of the peptide, and residual moisture were evaluated.
The evaluated parameters of neutral formulations of NX001 were not changed following 12 months storage at temperatures of 5° C. and 25° C.

[3] = pH of histidine/sucrose solutions after addition of NX001; type: physicochemical; conditions: 20 mM histidine
Protocol: Next, 20 mM histidine, containing 8.8% sucrose was prepared and the pH was adjusted to 5.5 with HCl. Similarly, additional solutions of 20 mM histidine containing 8.8% sucrose were prepared and the pH was adjusted to 7.5 and 9.0. These solutions were diluted 1/160 and 8 μL aliquots added to plates of BSC-1 cells. As shown in FIG. 4 (bars 2, 3, 4), the solutions were not mitogenic themselves. NX001 was dissolved in each of solution to 0.125 mg/mL.

[4] = 5° C., After 12 months of storage
[5] = 25° C., After 12 months of storage

N[C@@H](Cc1c[nH]cn1)C(=O)O [histidine]
mitogenic activity of excipient without NX001 [1]: did not exhibit mitogenic activity

OC[C@H]1O[C@@](CO)(O[C@H]2O[C@H](CO)[C@@H](O)[C@H](O)[C@H]2O)[C@@H](O)[C@@H]1O [sucrose]
mitogenic activity of excipient without NX001 [1]: did not exhibit mitogenic activity

AQPYPQGNHEASYG [NX001, growth factor peptide designated NX001; PPL-WGF codes are lots of it]
cell growth ([1]; NX001 0.2 μg/mL added separately from histidine/sucrose solutions of pH 5.5, 7.5, 9.0, FIG. 4 bars 8, 9, 10): increased cell growth to the same extent as the positive control alone | growth-promoting activity ([1]; NX001 0.2 μg/ml in the presence of 20 mM histidine (pH 5.5) alone, FIG. 3B): abolished | increase in cell number ([1]; NX001 0.2 μg/ml in the presence of 8.8% sucrose, FIG. 3B): 23% | growth-promoting activity ([1]; NX001 0.2 μg/ml in the presence of histidine plus sucrose, FIG. 3B): abolished | increase in cell number ([1]; NX001 alone, 0.2 μg/ml, FIG. 3B): 36% | increase in growth of BSC-1 cells ([1]; NX001 dissolved and diluted in water, 0.125 μg/mL, FIG. 5 bar 3): 24% | mitogenicity ([1]; NX001 dissolved in 20 mM histidine, 8.8% sucrose, resulting pH <5.0, ~5.5, ~6.5, not neutralized, FIG. 4 bars 5, 6, 7): not mitogenic | increase in cell number ([1]; NX001 dissolved in PBS and diluted in water, 0.125 μg/mL, FIG. 5 bar 4): increased cell number by the same amount | mitogenic activity ([1]; NX001 dissolved in histidine/sucrose (final pH 5.5), diluted in water, FIG. 5 bar 5): inactive | increase in cell number ([1]; NX001 dissolved in histidine/sucrose and diluted in PBS (pH 7.25), FIG. 5 bar 7): > 24% | mitogenic activity ([1]; NX001 dissolved in histidine/sucrose, neutralized with NaOH to pH 7.5, diluted in water, FIG. 5 bar 6): active | mitogenicity ([1]; NX001 in 20 mM histidine, 8.8% sucrose neutralized with NaOH to pH 7.5 before dilution in water, FIG. 4 bars 11, 12, 13): mitogenic to the same extent as the positive control | mitogenicity ([1]; formulated at 20 mg/mL in 20 mM histidine, 254 mM sucrose, pH 6.5, lyophilized, reconstituted with water, 0.05 to 0.4 μg/mL, FIG. 2): not mitogenic | mitogenic activity ([1]; lot PPL-WGF0501A dissolved in 20 mM histidine, 200 mM sucrose, pH 7.25 immediately before assay, FIG. 6 open circles): active | increase in cell number ([1]; lot PPL-WGF0501A dissolved in PBS immediately before assay, FIG. 6 closed circles): ~30% | maximal mitogenic response ([1]; unformulated NX001 peptide lots, BSC-1 cells, FIG. 1): ~26% | Cake appearance [2, 4]: White cake | Potency (% of NX001 recovered in main peak compared to stated vial concentration) [2, 4]: 99.6% | Purity [2, 4]: 98.8% | Reconstituted appearance [2, 4]: Clear, colorless | Reconstitution time [2, 4]: 64 s | Residual moisture [2, 4]: 0.80% | Total % impurities [2, 4]: 1.2% | pH [2, 4]: 7.2 | Cake appearance ([2]; 5° C., Initial): White cake | Potency (% of NX001 recovered in main peak compared to stated vial concentration) ([2]; 5° C., Initial): 102% | Purity ([2]; 5° C., Initial): 98.8% | Reconstituted appearance ([2]; 5° C., Initial): Clear, colorless | Reconstitution time ([2]; 5° C., Initial): 45 s | Residual moisture ([2]; 5° C., Initial): 0.71% | Total % impurities ([2]; 5° C., Initial): 1.2% | pH ([2]; 5° C., Initial): 7.2 | Cake appearance [2, 5]: White cake | Potency (% of NX001 recovered in main peak compared to stated vial concentration) [2, 5]: 97.9% | Purity [2, 5]: 98.4% | Reconstituted appearance [2, 5]: Clear, colorless | Reconstitution time [2, 5]: 72 s | Residual moisture [2, 5]: 1.05% | Total % impurities [2, 5]: 1.6% | pH [2, 5]: 7.3 | Cake appearance ([2]; 25° C., Initial): White cake | Potency (% of NX001 recovered in main peak compared to stated vial concentration) ([2]; 25° C., Initial): 102% | Purity ([2]; 25° C., Initial): 98.8% | Reconstituted appearance ([2]; 25° C., Initial): Clear, colorless | Reconstitution time ([2]; 25° C., Initial): 45 s | Residual moisture ([2]; 25° C., Initial): 0.71% | Total % impurities ([2]; 25° C., Initial): 1.2% | pH ([2]; 25° C., Initial): 7.2 | pH of solution after dissolving NX001 ([3]; 8.8% sucrose adjusted to pH 5.5 before NX001): < 5.0 | pH of solution after dissolving NX001 ([3]; 8.8% sucrose adjusted to pH 7.5 before NX001): ~5.5 | pH of solution after dissolving NX001 ([3]; 8.8% sucrose adjusted to pH 9.0 before NX001): ~6.5

gly-tyr-glu-ser-pro-ala-his-gly-tyr-gln-ala-pro-asn-gln (GYESPAHGYQAPNQ) [Scrambled NX001 peptide, 14-amino acid peptide including the same amino acids as NX001, but in scrambled order, reference compound]
promotion of cell growth ([1]; FIG. 6 closed squares): did not promote cell growth
